Reference: patent US12570642B2, “GLP-IR modulating compounds” (Gilead Sciences, Inc., priority 2021, dated 2026)

Molecular target: GLP-1R (Homo sapiens, UniProt P43220)
Test: GLP-1R Activation - cAMP Assay
Assay type: cell-based
Details: each compound run on one of the two cAMP assays (Assay 1 or Assay 2, not specified)
How it was run: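 CHO cells stably expressing GLP-1R, plated at 1,000 cells/well overnight, then equilibrated 1 h in HBSS with 20 mM Hepes and 0.1% BSA. Agonist added as 10-point dose response for 30 min at 37 °C. cAMP measured by HTRF (Cisbio Gs Dynamic kit); EC50 from sigmoidal fit.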

[1] = cAMP increase in CHO cells stably expressing GLP-1R

Sequence of GLP-1R (P43220 24-463): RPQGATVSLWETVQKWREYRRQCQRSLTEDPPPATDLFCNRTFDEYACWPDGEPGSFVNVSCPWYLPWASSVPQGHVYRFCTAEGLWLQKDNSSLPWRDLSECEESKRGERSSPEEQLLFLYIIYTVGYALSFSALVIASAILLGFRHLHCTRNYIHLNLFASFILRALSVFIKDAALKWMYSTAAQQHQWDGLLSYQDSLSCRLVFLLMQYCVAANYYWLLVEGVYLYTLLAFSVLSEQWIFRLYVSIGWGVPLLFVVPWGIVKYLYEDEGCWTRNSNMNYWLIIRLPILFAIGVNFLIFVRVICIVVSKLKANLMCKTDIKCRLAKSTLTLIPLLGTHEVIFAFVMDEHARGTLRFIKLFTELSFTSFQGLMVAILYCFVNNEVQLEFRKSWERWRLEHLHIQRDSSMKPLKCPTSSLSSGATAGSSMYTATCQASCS

Compound | EC50 ([…]) [pM] | EC50 [1] [pM]
CC(C)(C)OC(=O)N[C@@H]1COC[C@@H]1n1c(Cc2cc(F)c(-c3cccc(OCc4ccc(C#N)cc4F)n3)cc2F)nc2ccc(C(=O)O)cc21 (racemic) [Example 72, 1-((3R,4S)-4-((tert-butoxycarbonyl)amino)tetrahydrofuran-3-yl)-2-(4-(6-((4-cyano-2-fluorobenzyl)oxy)pyridin-2-yl)-2,5-difluorobenzyl)-1H-benzo[d]imidazole-6-carboxylic Acid] | 37000 | –
CC1(C)COCC1n1c(Cc2cc(F)c(-c3cccc(OCc4cnc(Cl)cc4F)n3)cc2F)nc2ccc(C(=O)O)cc21 (stereo not drawn) [Example 295, 2-(4-(6-((6-chloro-4-fluoropyridin-3-yl)methoxy)pyridin-2-yl)-2,5-difluorobenzyl)-1-(4,4-dimethyltetrahydrofuran-3-yl)-1H-benzo[d]imidazole-6-carboxylic acid] | – | 42
Cc1cc(Cc2nc3c(F)cc(C(=O)O)cc3n2[C@@H]2COCC2(C)C)c(Cl)cc1-c1cccc(OCc2ccc(C#N)cc2F)n1 [Example 139, (S)-2-(2-chloro-4-(6-((4-cyano-2-fluorobenzyl)oxy)pyridin-2-yl)-5-methylbenzyl)-1-(4,4-dimethyltetrahydrofuran-3-yl)-4-fluoro-1H-benzo[d]imidazole-6-carboxylic Acid] | – | 23
CC1(C)COC[C@H]1n1c(Cc2cc(F)c(-c3ccc(Cl)c(OCc4ccc(C#N)cc4F)n3)cc2F)nc2ccc(C(=O)O)cc21 [Example 434, (S)-2-(4-(5-chloro-6-((4-cyano-2-fluorobenzyl)oxy)pyridin-2-yl)-2,5-difluorobenzyl)-1-(4,4-dimethyltetrahydrofuran-3-yl)-1H-benzo[d]imidazole-6-carboxylic acid] | – | 58
CO[C@H]1COCC1n1c(Cc2cc(F)c(-c3cccc(OCc4ccc(C#N)cc4F)n3)cc2F)nc2c(F)cc(C(=O)O)cc21 (single isomer, unassigned) [Example 238] | – | 100
CC1(C)COC[C@H]1n1c(Cc2c(F)cc(-c3cccc(OCc4ccc(Cl)cc4)n3)c(F)c2F)nc2ccc(C(=O)O)cc21 [Example 246, (S)-2-(4-(6-((4-chlorobenzyl)oxy)pyridin-2-yl)-2,3,6-trifluorobenzyl)-1-(4,4-dimethyltetrahydrofuran-3-yl)-1H-benzo[d]imidazole-6-carboxylic acid] | – | 65
CC1(C)COC[C@H]1n1c(Cc2ccc(-c3nc(OCc4ccc(C#N)cc4F)ccc3F)cc2F)nc2ccc(C(=O)O)cc21 [Example 364, (S)-2-(4-(6-((4-cyano-2-fluorobenzyl)oxy)-3-fluoropyridin-2-yl)-2-fluorobenzyl)-1-(4,4-dimethyltetrahydrofuran-3-yl)-1H-benzo[d]imidazole-6-carboxylic acid] | – | 158
CC1(C)COC[C@H]1n1c(Cc2cc(F)c(-c3ccc(F)c(OCc4c(F)cccc4F)n3)cc2F)nc2ccc(C(=O)O)cc21 [Example 475, (S)-2-(4-(6-((2,6-difluorobenzyl)oxy)-5-fluoropyridin-2-yl)-2,5-difluorobenzyl)-1-(4,4-dimethyltetrahydrofuran-3-yl)-1H-benzo[d]imidazole-6-carboxylic acid] | – | 601
COC(=O)N1C[C@@H](OC)[C@@H](n2c(Cc3cc(F)c(-c4cccc(OCc5ccc(C#N)cc5F)n4)cc3F)nc3ccc(C(=O)O)cc32)C1 [Example 87, 2-(4-(6-((4-cyano-2-fluorobenzyl)oxy)pyridin-2-yl)-2,5-difluorobenzyl)-1-((3S,4R)-4-methoxy-1-(methoxycarbonyl)pyrrolidin-3-yl)-1H-benzo[d]imidazole-6-carboxylic Acid] | 22500 | –
CC1(C)COC[C@H]1n1c(Cc2cc(F)c(-c3cccc(OCc4ccc(Cl)cc4F)n3)cc2F)nc2c(F)cc(C(=O)O)cc21 [Example 201, (S)-2-(4-(6-((4-chloro-2-fluorobenzyl)oxy)pyridin-2-yl)-2,5-difluorobenzyl)-1-(4,4-dimethyltetrahydrofuran-3-yl)-4-fluoro-1H-benzo[d]imidazole-6-carboxylic acid] | – | 28
Cc1cc(Cc2nc3ccc(C(=O)O)cc3n2[C@@H]2COCC2(C)C)c(Cl)cc1-c1ccnc(OCc2ccc(C#N)cc2)n1 [Example 301, (S)-2-(2-chloro-4-(2-((4-cyanobenzyl)oxy)pyrimidin-4-yl)-5-methylbenzyl)-1-(4,4-dimethyltetrahydrofuran-3-yl)-1H-benzo[d]imidazole-6-carboxylic acid] | – | 714
N#Cc1ccc(COc2cccc(-c3cc(F)c(Cc4nc5ccc(C(=O)O)cc5n4[C@@H]4CCOC4)cc3F)n2)c(F)c1 [Example 5, (R)-2-(4-(6-((4-cyano-2-fluorobenzyl)oxy)pyridin-2-yl)-2,5-difluorobenzyl)-1-(tetrahydrofuran-3-yl)-1H-benzo[d]imidazole-6-carboxylic acid] | – | 770
O=C(O)c1ccc2nc(Cc3cc(F)c(-c4cccc(OCc5ccc6nsnc6c5)n4)cc3F)n(C[C@@H]3CCO3)c2c1 [Example 527, (S)-2-(4-(6-(benzo[c][1,2,5]thiadiazol-5-ylmethoxy)pyridin-2-yl)-2,5-difluorobenzyl)-1-(oxetan-2-ylmethyl)-1H-benzo[d]imidazole-6-carboxylic acid] | – | 184
Cc1cc(Cc2nc3c(F)cc(C(=O)O)cc3n2[C@@H]2COCC2(C)C)c(Cl)cc1-c1ccnc(OCc2ccc(Cl)cc2F)n1 [Example 317, (S)-2-(2-chloro-4-(2-((4-chloro-2-fluorobenzyl)oxy)pyrimidin-4-yl)-5-methylbenzyl)-1-(4,4-dimethyltetrahydrofuran-3-yl)-4-fluoro-1H-benzo[d]imidazole-6-carboxylic acid] | – | 451
N#Cc1ccc(COc2cccc(-c3cc(F)c(Cc4nc5ccc(C(=O)O)cc5n4C4COC5CC4C5)cc3F)n2)c(F)c1 (stereo not drawn) [Example 68, 1-(2-oxabicyclo[3.1.1]heptan-4-yl)-2-(4-(6-((4-cyano-2-fluorobenzyl)oxy)pyridin-2-yl)-2,5-difluorobenzyl)-1H-benzo[d]imidazole-6-carboxylic Acid] | – | 330
CC1(C)COC[C@H]1n1c(Cc2c(F)cc(-c3ccc(F)c(OCc4ccc(Cl)cc4F)n3)c(F)c2F)nc2ccc(C(=O)O)cc21 [Example 335, (S)-2-(4-(6-((4-chloro-2-fluorobenzyl)oxy)-5-fluoropyridin-2-yl)-2,3,6-trifluorobenzyl)-1-(4,4-dimethyltetrahydrofuran-3-yl)-1H-benzo[d]imidazole-6-carboxylic acid] | – | 306
CC1(C)COCC1n1c(Cc2cc(F)c(-c3cccc(OCc4cc(F)c(Cl)cc4F)n3)cc2F)nc2c(F)cc(C(=O)O)cc21 (stereo not drawn) [Example 501, 2-(4-(6-((4-chloro-2,5-difluorobenzyl)oxy)pyridin-2-yl)-2,5-difluorobenzyl)-1-(4,4-dimethyltetrahydrofuran-3-yl)-4-fluoro-1H-benzo[d]imidazole-6-carboxylic acid] | – | 508
Cc1cc(Cc2nc3ccc(C(=O)O)cc3n2[C@@H]2COCC2(C)C)c(F)cc1-c1ccnc(OCc2ccc(Cl)cc2F)n1 [Example 284, (S)-2-(4-(2-((4-chloro-2-fluorobenzyl)oxy)pyrimidin-4-yl)-2-fluoro-5-methylbenzyl)-1-(4,4-dimethyltetrahydrofuran-3-yl)-1H-benzo[d]imidazole-6-carboxylic acid] | – | 135
